Converted amounts (≈) assume the structure as drawn. Read-outs that look alike come from different tables or passages of the source.
Key:
[1] = Solubility of test articles in vehicle, visual observation (Table 22); assay type: physicochemical; settings: vehicle WFI; formulation 2 mg/mL; visual observation
Description: Test Articles. […] Amphotericin B and fluconazole were in powder form. Amphotericin B was dissolved in 0.9% NaCl. Fluconazole was dissolved in water (WFI: water for injection).

[2] = tested on: azole-resistant Candida albicans R357 strain; experiment: microbe, parasite or virus in culture; assay type: cell-based
[3] = tested on: azole-resistant C. albicans (R357); experiment: Immunosuppressed rat model of vulvovaginal candidiasis, vaginal CFU; assay type: in vivo, Candida albicans; settings: oral 20 mg/kg once daily for three days; days 5 and 12
[4] = tested on: C. albicans vaginal isolates; experiment: Susceptibility testing of VVC clinical isolates at pH 7 and 4 (CLSI M27-A3); assay type: cell-based, Candida albicans; settings: for Number of isolates at MIC 0.25 μg/mL / Number of isolates at MIC 0.5 μg/mL / Number of isolates at MIC 1 μg/mL / Number of isolates at MIC 2 μg/mL / Number of isolates at MIC 4 μg/mL / Number of isolates at MIC ≥4 μg/mL / Number of isolates at MIC 0.125 μg/mL: 60 VVC isolates; for MIC / MIC90: Candida albicans; for MIC: read-out: MIC; for MIC90: 60 isolates, read-out: MIC90
[5] = tested on: C. krusei ATCC 6258, ATCC 14243; experiment: Time-kill assay in vagina-simulative medium pH 4.0 (Table 20); assay type: cell-based, Candida krusei

OC(Cn1cncn1)(Cn1cncn1)c1ccc(F)cc1F [FLU, fluconazole]
Solubility [1]: S
Susceptibility (CLSI) ([2]; C. albicans R357): R
MIC ([2]; Candida albicans): > 64 µg/mL
reduction in vaginal CFU compared with no treatment control [3]: < 1 log-fold
Number of isolates at MIC 0.25 μg/mL ([4]; 24 h, pH 4): 35
Number of isolates at MIC 0.5 μg/mL ([4]; 24 h, pH 4): 13
Number of isolates at MIC 1 μg/mL ([4]; 24 h, pH 4): 2
Number of isolates at MIC 2 μg/mL ([4]; 24 h, pH 4): 2
Number of isolates at MIC 4 μg/mL ([4]; 24 h, pH 4): 1
Number of isolates at MIC ≥4 μg/mL ([4]; 24 h, pH 4): 7
Number of isolates at MIC 0.125 μg/mL ([4]; 24 h, pH 7): 25
Number of isolates at MIC 0.25 μg/mL ([4]; 24 h, pH 7): 19
Number of isolates at MIC 0.5 μg/mL ([4]; 24 h, pH 7): 7
Number of isolates at MIC 1 μg/mL ([4]; 24 h, pH 7): 1
Number of isolates at MIC 2 μg/mL ([4]; 24 h, pH 7): 2
Number of isolates at MIC ≥4 μg/mL ([4]; 24 h, pH 7): 6
Number of isolates at MIC 0.5 μg/mL ([4]; 48 h, pH 4): 27
Number of isolates at MIC 1 μg/mL ([4]; 48 h, pH 4): 13
Number of isolates at MIC 2 μg/mL ([4]; 48 h, pH 4): 5
Number of isolates at MIC 4 μg/mL ([4]; 48 h, pH 4): 1
Number of isolates at MIC ≥4 μg/mL ([4]; 48 h, pH 4): 14
Number of isolates at MIC 0.125 μg/mL ([4]; 48 h, pH 7): 3
Number of isolates at MIC 0.25 μg/mL ([4]; 48 h, pH 7): 37
Number of isolates at MIC 0.5 μg/mL ([4]; 48 h, pH 7): 8
Number of isolates at MIC 1 μg/mL ([4]; 48 h, pH 7): 2
Number of isolates at MIC 2 μg/mL ([4]; 48 h, pH 7): 1
Number of isolates at MIC ≥4 μg/mL ([4]; 48 h, pH 7): 9
MIC ([4]; 48 h, pH 4, fluconazole-resistant isolate 1, pH 4, 48 h): > 64 µg/mL
MIC ([4]; 48 h, pH 4, fluconazole-resistant isolate 2, pH 4, 48 h): 32 µg/mL (≈ 104 µM)
MIC ([4]; 48 h, pH 4, fluconazole-resistant isolate 3, pH 4, 48 h): > 64 µg/mL
MIC ([4]; 48 h, pH 4, fluconazole-resistant isolate 4, pH 4, 48 h): > 64 µg/mL
MIC ([4]; 48 h, pH 4, fluconazole-resistant isolate 5, pH 4, 48 h): > 64 µg/mL
MIC ([4]; 48 h, pH 4, fluconazole-resistant isolate 6, pH 4, 48 h): > 64 µg/mL
MIC ([4]; 48 h, pH 4, fluconazole-resistant isolate 7, pH 4, 48 h): 32 µg/mL (≈ 104 µM)
MIC ([4]; 48 h, pH 4, fluconazole-resistant isolate 8, pH 4, 48 h): > 64 µg/mL
MIC ([4]; 48 h, pH 4, fluconazole-resistant isolate 9, pH 4, 48 h): > 64 µg/mL
MIC ([4]; 48 h, pH 4, fluconazole-resistant isolate 10, pH 4, 48 h): 64 µg/mL (≈ 209 µM)
MIC ([4]; 48 h, pH 7, fluconazole-resistant isolate 1, pH 7, 48 h): 16 µg/mL (≈ 52.2 µM)
MIC ([4]; 48 h, pH 7, fluconazole-resistant isolate 2, pH 7, 48 h): 16 µg/mL (≈ 52.2 µM)
MIC ([4]; 48 h, pH 7, fluconazole-resistant isolate 3, pH 7, 48 h): 16 µg/mL (≈ 52.2 µM)
MIC ([4]; 48 h, pH 7, fluconazole-resistant isolate 4, pH 7, 48 h): 8 µg/mL (≈ 26.1 µM)
MIC ([4]; 48 h, pH 7, fluconazole-resistant isolate 5, pH 7, 48 h): > 64 µg/mL
MIC ([4]; 48 h, pH 7, fluconazole-resistant isolate 6, pH 7, 48 h): 0.25 µg/mL (≈ 0.816 µM)
MIC ([4]; 48 h, pH 7, fluconazole-resistant isolate 7, pH 7, 48 h): 16 µg/mL (≈ 52.2 µM)
MIC ([4]; 48 h, pH 7, fluconazole-resistant isolate 8, pH 7, 48 h): 32 µg/mL (≈ 104 µM)
MIC ([4]; 48 h, pH 7, fluconazole-resistant isolate 9, pH 7, 48 h): > 64 µg/mL
MIC ([4]; 48 h, pH 7, fluconazole-resistant isolate 10, pH 7, 48 h): 16 µg/mL (≈ 52.2 µM)
MIC90 ([4]; pH 4, 24 h): 8 µg/mL (≈ 26.1 µM)
MIC90 ([4]; pH 4, 48 h): > 64 µg/mL
MIC90 ([4]; pH 7, 24 h): 8 µg/mL (≈ 26.1 µM)
MIC90 ([4]; pH 7, 48 h): 16 µg/mL (≈ 52.2 µM)
Susceptibility to FLU (S/R) ([5]; C. krusei ATCC 6258): R
Susceptibility to FLU (S/R) ([5]; C. krusei ATCC 14243): R
